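Protocol summary: plate cells (96-well), add compound at 5 concentrations, incubate 48 h, interpolate endpoints linearly. TGI is the concentration that stops growth completely.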
Columns and labels:
Test in all cases: growth of human tumour cells (NCI), 48 h
786-0 renal = tested on: 786-0 renal
A498 renal = tested on: A498 renal
A549 NSCLC = tested on: A549 NSCLC
ACHN renal = tested on: ACHN renal
CAKI-1 renal = tested on: CAKI-1 renal
CCRF-CEM leukemia = tested on: CCRF-CEM leukemia
COLO 205 colon = tested on: COLO 205 colon
DLD-1 colon = tested on: DLD-1 colon
DMS 114 small cell lung = tested on: DMS 114 small cell lung
DMS 273 small cell lung = tested on: DMS 273 small cell lung
HCT-116 colon = tested on: HCT-116 colon
HL-60(TB) leukemia = tested on: HL-60(TB) leukemia
HOP-18 NSCLC = tested on: HOP-18 NSCLC
HOP-92 NSCLC = tested on: HOP-92 NSCLC
HT29 colon = tested on: HT29 colon
IGROV1 ovarian = tested on: IGROV1 ovarian
K-562 leukemia = tested on: K-562 leukemia
KM12 colon = tested on: KM12 colon
KM20L2 colon = tested on: KM20L2 colon
LOX IMVI melanoma = tested on: LOX IMVI melanoma
LXFL 529 NSCLC = tested on: LXFL 529 NSCLC
M14 melanoma = tested on: M14 melanoma
M19-MEL melanoma = tested on: M19-MEL melanoma
MALME-3M melanoma = tested on: MALME-3M melanoma
MOLT-4 leukemia = tested on: MOLT-4 leukemia
NCI-H226 lung = tested on: NCI-H226 lung
NCI-H23 lung = tested on: NCI-H23 lung
NCI-H460 lung = tested on: NCI-H460 lung
NCI-H522 lung = tested on: NCI-H522 lung
OVCAR-3 ovarian = tested on: OVCAR-3 ovarian
OVCAR-4 ovarian = tested on: OVCAR-4 ovarian
OVCAR-5 ovarian = tested on: OVCAR-5 ovarian
OVCAR-8 ovarian = tested on: OVCAR-8 ovarian
RPMI-8226 leukemia = tested on: RPMI-8226 leukemia
RXF 393 renal = tested on: RXF 393 renal
RXF-631 renal = tested on: RXF-631 renal
SF-268 CNS = tested on: SF-268 CNS
SF-295 CNS = tested on: SF-295 CNS
SF-539 CNS = tested on: SF-539 CNS
SK-MEL-2 melanoma = tested on: SK-MEL-2 melanoma
SK-MEL-28 melanoma = tested on: SK-MEL-28 melanoma
SK-MEL-5 melanoma = tested on: SK-MEL-5 melanoma
SK-OV-3 ovarian = tested on: SK-OV-3 ovarian
SN12C renal = tested on: SN12C renal
SNB-19 CNS = tested on: SNB-19 CNS
SNB-75 CNS = tested on: SNB-75 CNS
SNB-78 CNS = tested on: SNB-78 CNS
SR leukemia = tested on: SR leukemia
SW-620 colon = tested on: SW-620 colon
TK-10 renal = tested on: TK-10 renal
U251 CNS = tested on: U251 CNS
UACC-257 melanoma = tested on: UACC-257 melanoma
UACC-62 melanoma = tested on: UACC-62 melanoma
UO-31 renal = tested on: UO-31 renal
XF 498 CNS = tested on: XF 498 CNS
EKVX NSCLC = tested on: EKVX NSCLC
HCC-2998 colon = tested on: HCC-2998 colon
HCT-15 colon = tested on: HCT-15 colon
HOP-62 NSCLC = tested on: HOP-62 NSCLC

COc1ccc([Se]c2ccc(OC)cc2OC)c(OC)c1 showed a TGI (786-0 renal) of over 100 µM, a TGI (A498 renal) of 70.3 µM and a TGI (A549 NSCLC) of over 100 µM. It also gave a TGI (ACHN renal) of over 100 µM, a TGI (CAKI-1 renal) of over 100 µM and a TGI (CCRF-CEM leukemia) of over 100 µM. The TGI (COLO 205 colon) was 27.1 µM, the TGI (DLD-1 colon) was over 100 µM and the TGI (DMS 114 small cell lung) was 13 µM. The TGI (DMS 273 small cell lung) was 17.6 µM, the TGI (HCT-116 colon) was 46.5 µM and the TGI (HL-60(TB) leukemia) was over 100 µM. For the same molecule, the TGI (HOP-18 NSCLC) was 86 µM, the TGI (HOP-92 NSCLC) was 16.3 µM and the TGI (HT29 colon) was 29.7 µM. For the same molecule, the TGI (IGROV1 ovarian) was 59.9 µM, the TGI (K-562 leukemia) was over 100 µM and the TGI (KM12 colon) was over 100 µM. For the same molecule, the TGI (KM20L2 colon) was 31.6 µM, the TGI (LOX IMVI melanoma) was over 100 µM and the TGI (LXFL 529 NSCLC) was over 100 µM. For the same molecule, the TGI (M14 melanoma) was over 100 µM, the TGI (M19-MEL melanoma) was 87.1 µM and the TGI (MALME-3M melanoma) was over 100 µM. For the same molecule, the TGI (MOLT-4 leukemia) was over 100 µM, the TGI (NCI-H226 lung) was 83.3 µM and the TGI (NCI-H23 lung) was over 100 µM. It also gave a TGI (NCI-H460 lung) of over 100 µM, a TGI (NCI-H522 lung) of 38.2 µM and a TGI (OVCAR-3 ovarian) of over 100 µM. It also gave a TGI (OVCAR-4 ovarian) of over 100 µM, a TGI (OVCAR-5 ovarian) of over 100 µM and a TGI (OVCAR-8 ovarian) of over 100 µM. For the same molecule, the TGI (RPMI-8226 leukemia) was over 100 µM, the TGI (RXF 393 renal) was 59.5 µM and the TGI (RXF-631 renal) was over 100 µM. It also gave a TGI (SF-268 CNS) of over 100 µM, a TGI (SF-295 CNS) of 33.7 µM and a TGI (SF-539 CNS) of over 100 µM. For the same molecule, the TGI (SK-MEL-2 melanoma) was 92.2 µM, the TGI (SK-MEL-28 melanoma) was 77.1 µM and the TGI (SK-MEL-5 melanoma) was 93.4 µM. The TGI (SK-OV-3 ovarian) was 92.1 µM, the TGI (SN12C renal) was over 100 µM and the TGI (SNB-19 CNS) was over 100 µM. It also gave a TGI (SNB-75 CNS) of 36.9 µM, a TGI (SNB-78 CNS) of 96.6 µM and a TGI (SR leukemia) of 45.7 µM. It also gave a TGI (SW-620 colon) of over 100 µM, a TGI (TK-10 renal) of over 100 µM and a TGI (U251 CNS) of over 100 µM. For the same molecule, the TGI (UACC-257 melanoma) was over 100 µM, the TGI (UACC-62 melanoma) was over 100 µM and the TGI (UO-31 renal) was 65.8 µM. The TGI (XF 498 CNS) was over 100 µM.

With c1ccc2c(c1)CCCc1cc3ccccc3nc1-2 the TGI (786-0 renal) was over 100 µM, the TGI (A498 renal) was over 100 µM and the TGI (A549 NSCLC) was over 100 µM. It also gave a TGI (ACHN renal) of over 100 µM, a TGI (CAKI-1 renal) of over 100 µM and a TGI (CCRF-CEM leukemia) of over 100 µM. The TGI (COLO 205 colon) was over 100 µM, the TGI (DLD-1 colon) was over 100 µM and the TGI (DMS 114 small cell lung) was 75.1 µM. It also gave a TGI (EKVX NSCLC) of over 100 µM, a TGI (HCC-2998 colon) of over 100 µM and a TGI (HCT-116 colon) of over 100 µM. The TGI (HCT-15 colon) was over 100 µM, the TGI (HOP-18 NSCLC) was over 100 µM and the TGI (HOP-62 NSCLC) was over 100 µM. It also gave a TGI (HT29 colon) of over 100 µM, a TGI (IGROV1 ovarian) of over 100 µM and a TGI (K-562 leukemia) of over 100 µM. It also gave a TGI (KM12 colon) of over 100 µM, a TGI (KM20L2 colon) of over 100 µM and a TGI (LXFL 529 NSCLC) of over 100 µM. For the same molecule, the TGI (M14 melanoma) was over 100 µM, the TGI (M19-MEL melanoma) was over 100 µM and the TGI (MALME-3M melanoma) was over 100 µM. The TGI (MOLT-4 leukemia) was over 100 µM, the TGI (NCI-H23 lung) was over 100 µM and the TGI (NCI-H460 lung) was over 100 µM. The TGI (NCI-H522 lung) was over 100 µM, the TGI (OVCAR-3 ovarian) was over 100 µM and the TGI (OVCAR-4 ovarian) was over 100 µM. It also gave a TGI (OVCAR-5 ovarian) of over 100 µM, a TGI (OVCAR-8 ovarian) of over 100 µM and a TGI (RPMI-8226 leukemia) of 99.2 µM. The TGI (SF-268 CNS) was over 100 µM, the TGI (SF-295 CNS) was over 100 µM and the TGI (SF-539 CNS) was over 100 µM. The TGI (SK-MEL-2 melanoma) was over 100 µM, the TGI (SK-MEL-28 melanoma) was over 100 µM and the TGI (SK-MEL-5 melanoma) was over 100 µM. The TGI (SK-OV-3 ovarian) was over 100 µM, the TGI (SN12C renal) was over 100 µM and the TGI (SNB-19 CNS) was over 100 µM. For the same molecule, the TGI (SNB-75 CNS) was over 100 µM, the TGI (SNB-78 CNS) was over 100 µM and the TGI (SW-620 colon) was over 100 µM. The TGI (TK-10 renal) was over 100 µM, the TGI (U251 CNS) was over 100 µM and the TGI (UACC-257 melanoma) was over 100 µM. The TGI (UACC-62 melanoma) was over 100 µM, the TGI (UO-31 renal) was over 100 µM and the TGI (XF 498 CNS) was over 100 µM.
